Measured values: patent publication US7183279B2, “Histogranin-like peptides and non-peptides, processes for their preparation and uses thereof” (University of Ottawa, priority 2006, dated 2007)
“Also recorded” adds a separate entry of the source. Like-named read-outs stand apart in the source and are kept apart here. Non-standard residues stand in square brackets, D forms with d. Residues, ends and D or L forms follow the SMILES beside them. Phe(4-Cl) = N[C@@H](Cc1ccc(Cl)cc1)C(=O)O

Columns and labels:
Swiss Webster mice [1] = assay: Mouse rotarod assay; settings: 10 nmol i.c.v.
From the text: Mouse rotarod assay. The rotarod treadmill (model 7600, UGO Basile, Italy) for mice was used to assess the motor side-effects of antinociceptive agents. […] The apparatus is constituted of a rod with a diameter of 2.5 cm suspended horizontally 50 cm above a plane working area. The rod is turning at a speed of 8 revolutions per min. Circular perpex separators are placed at regular intervals along the rod so that five mice can be tested at the same time. Before administering any compound, all animals are placed on the turning rod for one min in two consecutive rounds. Mice that fall from the rod during these conditioning experiments are excluded from the assay. For the assay, the test compounds were administered i.c.v. and the animals were placed on the turning rod for two min. The % of mice in groups of 10 mice which fell during this latter two min-experiment was recorded as the % of mice showing motor effects. Rotarod assays were conducted at different times (up to 60 min) after the administration of peptides. Statistical calculation were made using Student t-test. Results: Mouse writhing pain assay. […] The lengths of action of the various compounds were evaluated by measuring the time (T1/2) it took after injection of a specific dose of a compound to produce half-maximal effect. […] Analgesic effects of peripheral administrations. […] Mouse tail-flick assay.

Swiss Webster mice [2] = assay: Mouse writhing test (acetic acid-induced); type: in vivo; settings: for AD50 (nmol/mouse): acetic acid i.p. 5 min after injection; for analgesia: i.v. administration, 1 μmol/kg; for analgesic activity after peripheral administration: oral and i.p. administrations
Swiss Webster mice [3] = assay: Mouse tail flick assay (radiant heat); type: in vivo; settings: i.c.v.; for AD50 (nmol/mouse): latency 5 min after injection
Protocol: Mouse tail flick assay. […] Briefly, the latency to withdraw the tail from a focused light stimulus was determined using a photocell. […] Baseline latencies were determined before experimental treatment as the mean of two trials and a maximal latency of 12 s was used to minimize tissue damage. Post-treatment latencies were determined 5 min after i.c.v. injection. The antinociceptive effect was expressed as the percentage of the maximum possible effect, as calculated by the formula: % MPE=[(post-injection latency-baseline latency)/(cutoff latency-baseline latency)]×100. […] Group % MPE means were compared using one-way ANOVAs and P≦0.05 was considered significant.

Swiss Webster mice [4] = settings: literature values; cited from earlier work
Swiss Webster mice [5] = assay: Induction of tolerance to morphine, tail-flick latency; type: in vivo, mouse; settings: for tail-flick latency on repeated dosing: 8 days
Protocol: Tail-flick latency to thermal pain was recorded 30 min after the i.p. administration(s) in the morning session of days 1, 3, 6 and 8 as indicated in the figure.

[6] = i.t. administration of NMDA, literature; cited from earlier work
rat = settings: literature; cited from earlier work
[7] = sciatic nerve injury, literature; cited from earlier work

Molecule | motor effect (Swiss Webster mice [1]) | Potency ratio relative to Histogranin (HN) (Swiss Webster mice [2]; i.c.v.) | AD50 (nmol/mouse) (Swiss Webster mice [2]; i.c.v.) | Potency ratio relative to [Ser1]HN (Swiss Webster mice [3]) | AD50 (nmol/mouse) (Swiss Webster mice [3]) | further results
N=C(N)NCCC[C@H]1NC(=O)[C@H](Cc2ccc(O)cc2)NC(=O)[C@H](Cc2ccc(Cl)cc2)NC(=O)CNC1=O [Compound I-1, Cyclo(-Gly-(p-chloro)Phe-Tyr-D-Arg-)] (cyclo(G[Phe(4-Cl)]Y[dR])) | did not cause any motor effect | 135 | 0.17 | 12.5 | 9.1 | fold more potent than morphine (Swiss Webster mice [2]; i.c.v.): 3.9 fold; analgesia (Swiss Webster mice [2]): 84%; analgesic activity after peripheral administration (Swiss Webster mice [2]): dose-dependent analgesic activity; also recorded: Significant analgesic activity; analgesia in tail-flick assay in words (Swiss Webster mice [3]): more potent than HN
C[C@@H](O)[C@@H]1NC(=O)[C@@H](CCCNC(=N)N)NC(=O)[C@H](Cc2ccc(O)cc2)NC(=O)[C@H](Cc2ccc(Cl)cc2)NC1=O [Compound I-5, Cyclo(-Thr-(p-chloro)Phe-Tyr-D-Arg-)] (cyclo([Phe(4-Cl)]Y[dR]T)) | did not cause any motor effect | 2.14 | 10.7 | 2.96 | 38.5 | 
CC(C)CC(NC(=O)C(NC(=O)C(CCCNC(=N)N)NC(=O)CNC(=O)C(CCC(N)=O)NC(=O)CN)C(C)O)C(=O)NC(Cc1ccc(O)cc1)C(=O)NCC(=O)NC(Cc1ccccc1)C(=O)O (stereo not shown) [HN-(7–15), reference compound] (H-GQGRTLYGF-OH; configuration not given here) |  | 2.71 | 8.5 |  |  | AD50 (Swiss Webster mice [4]): 8.5 nmol/mouse
N=C(N)NCCC[C@H](Nc1ccccc1NC(=O)Cc1ccc(O)cc1)C(N)=O [II-1, N-5-guanidinopentanamide-(2S)-yl-2-N-(p-hydroxyphenylacetyl) phenylenediamine] | did not cause any motor effect | 3.54 | 6.5 | 8.0 | 14.2 | potentiation of morphine analgesia (Swiss Webster mice [2]; coadministration i.c.v. of subanalgesic dose (3 nmol) with morphine): left shift in the dose-response curve of morphine; also recorded: potentiates the analgesic effects of morphine; prolongation of morphine analgesia (Swiss Webster mice [2]; coadministration with morphine 0.5 nmol i.c.v.): slightly prolongated; analgesia (Swiss Webster mice [2]): 35%; analgesic activity after peripheral administration (Swiss Webster mice [2]): dose-dependent analgesic activity; also recorded: Significant analgesic activity; analgesia in tail-flick assay in words (Swiss Webster mice [3]): more potent than HN; effect on analgesic effect of morphine (Swiss Webster mice [5]; 4 mg/kg i.p. 30 min prior to morphine 10 mg/kg): potentiated the analgesic effect of morphine; effect on morphine tolerance (Swiss Webster mice [5]; 4 mg/kg i.p. 30 min prior to morphine 10 mg/kg, days 6 and 8): inhibits morphine tolerance; tail-flick latency on repeated dosing (Swiss Webster mice [5]; 4 mg/kg i.p. twice a day, alone): small increase in the tail-flick latency that was significant only on days 1 and 8
N=C(N)NCCC[C@H](Nc1ccc(C(F)(F)F)cc1NC(=O)Cc1ccc(O)cc1)C(N)=O [II-2, N-5-guanidinopentanamide-(2S)-yl-2-N-(p-hydroxyphenylacetyl)-4-trifluorometyl-phenylenediamine] | did not cause any motor effect | 1.40 | 16.1 | 1.16 | 98.6 | 
N=C(N)NCCC[C@@H](Nc1ccc(C(=O)O)cc1NC(=O)Cc1ccc(O)cc1)C(N)=O [II-3, N-5-guanidinopentanamide-(2R)-yl-2-N-(p-hydroxyphenylacetyl)-4-carboxy-phenylenediamine] | did not cause any motor effect | 7.27 | 3.16 | 3.59 | 31.7 | 
N=C(N)NCCC[C@@H](Nc1ccc(C(=O)c2ccc(Cl)cc2)cc1NC(=O)Cc1ccc(O)cc1)C(N)=O [II-4, N-5-guanidinopentanamide-(2R)-yl-2-N-(p-hydroxyphenylacetyl)-4-(p-chlorobenzoyl)-phenylenediamine] | did not cause any motor effect | 8.87 | 2.61 | 8.70 | 13.1 | 
N=C(N)NCCC[C@H](C(N)=O)n1c(-c2ccc(O)cc2)nc2cc(C(=O)O)ccc21 [III-1] | did not cause any motor effect | 5.56 | 4.14 | 11.9 | 9.6 | analgesic activity after peripheral administration (Swiss Webster mice [2]): dose-dependent analgesic activity; also recorded: Significant analgesic activity; analgesia in tail-flick assay in words (Swiss Webster mice [3]): more potent than HN
CN1CC[C@]23c4c5ccc(O)c4O[C@H]2[C@@H](O)C=C[C@H]3[C@H]1C5 [Morphine, reference compound] |  |  | 0.72 |  | 1.57 | tail-flick latency on repeated dosing (Swiss Webster mice [5]; 10 mg/kg i.p. twice a day): tolerance being developed at days 6 and 8
Cyclo(-Gly-(p-amino)Phe-Tyr-D-Arg-) [Compound I-4] |  | 9.14 | 2.52 |  |  | analgesia (Swiss Webster mice [2]): 71%
Cyclo(-Gly-(p-chloro)Phe-Tyr-(p-amino)Phe-) [Compound I-2] |  | 3.39 | 6.79 |  |  | 
Cyclo(-Gly-(p-chloro)Phe-Tyr-(p-guanidino)Phe-) [Compound I-3] |  | 21.3 | 1.08 |  |  | 
[Ser^1] HN: a chemically stable analog of HN |  |  |  | 1 | 114 | hyperalgesia and allodynia [6]: attenuated hyperalgesia and allodynia; tonic pain (rat): blocked tonic pain; hyperalgesia and allodynia [7]: attenuated hyperalgesia and allodynia
